Laboratory results reported in patent US11993640B2, “Treating inflammatory lung disease” (United States Government as represented by the Department …, priority 2019, dated 2024).
“Also recorded” adds a separate entry of the source. Non-standard residues stand in square brackets, D forms with d. Residues, ends and D or L forms follow the SMILES beside them. *: point of attachment. Phe(F5) = N[C@@H](Cc1c(F)c(F)c(F)c(F)c1F)C(=O)O; hArg = N=C(N)NCCCC[C@H](N)C(=O)O; 12Ado = NCCCCCCCCCCCC(=O)O; Nle = CCCC[C@H](N)C(=O)O; Orn = NCCC[C@H](N)C(=O)O; Abu = CC[C@H](N)C(=O)O; PhAc = O=C(Cc1ccccc1)*

Experiments:
[1] = system: PAK1-STAT3/NF-κB in gastric cancer cells; conditions: Gan et al. 2016; cited from earlier work
[2] = system: C57Bl/6J mice treated with bleomycin; assay: RNAseq and pathway analysis of lung tissue of bleomycin-treated mice; type: in vivo, mouse; conditions: bleomycin 28 days, MIA-602 versus vehicle
Description: Bleomycin and GHRH-R antagonist treatment. Mice were treated with 0.8 units of bleomycin (Bleomycin for Injection USP, Hospira, Lake Forest, IL) intraperitoneally (IP) on days 1, 3, 7, 10, 14 and 21 (Collins S, Chan-Li Y, Oh M, Vigeland C, Limjunyawong N, Mitzner W, Powell J D, Horton M R (2016). JCI Insight 1(4):1-13). Mice (randomly assigned) were simultaneously treated subcutaneously (sc) with MIA-602 (5 μg/day) or its vehicle (100 μL/day). MIA-602 was dissolved in DMSO (ACS grade; Sigma-Aldrich) and diluted 1:500 in normal saline for daily sc injection on days 0-21.
RNA isolation. RNA was extracted from fixed lung tissue in paraffin blocks using a Quick-RNA™ FFPE Kit (R1008, Zymo Research, Irvine, CA) following the manufacturer's protocol (Patel P, Selvarajah S, Guerard K, Bartlett J, Lapointe J, Berman D, Okello J, Park P (2017). PLoS ONE 12:e0179732). […]
RNAseq and Pathway analyses. […] Cluster generation and sequencing was done on the Illumina cBOT and HiSeq 3000 using reagents provided by Illumina, finally generating >32 million single-end 100 base reads per sample. […]
(§1) Gene counts were normalized using trimmed mean of M-values (TMM) method. Differential expression between groups was calculated with the exact test implemented in edgeR (Robinson M, McCarthy D, Smyth G (2010). Bioinformatics 26:139-140). […]

[3] = system: mouse lung fibroblasts (Mlg 2908); assay: RNAseq of cultured lung fibroblasts; type: cell-based; conditions: 1 and 5 μM, normal fibroblasts not exposed to bleomycin
Description: Lung fibroblasts. Newborn mouse lung fibroblasts (Mlg 2908) were obtained from the American Type Culture Collection, Manassas, VA and cultured in Eagle's minimal essential medium. Cells were grown in 6-well plates before incubation with 1 or 5 μM MIA-602 or vehicle, RNA isolation, and oxygen consumption measurements.
RNA was extracted from cultured fibroblasts using a Direct-zol RNA MicroPrep kit (R2060; Zymo Research, Irvine, CA). Cells were washed with PBS and lysed in TRIreagent™, then purified using Direct-zol RNA columns. DNase I treatment was done in columns and RNA eluted in DNase/Rnase-free water.
RNAseq and Pathway analyses. At least 10 ng of total RNA was used as input for the KAPA RNA HyperPrep Kit with RiboErase (HMR) to create ribosomal RNA-depleted sequencing libraries, including sample indexing, to allow for multiplexing. Cluster generation and sequencing was done on the Illumina cBOT and HiSeq 3000 using reagents provided by Illumina, finally generating >32 million single-end 100 base reads per sample.
De-multiplexed FASTQ files were created with Illumina supplied scripts in BCL2FASTQ software (v2.17). […]
as §1

PC3 cells = assay: In vitro cell viability, prostatic cancer PC3; type: cell-based, human; conditions: 5 μM, 72 h; relative to MIA602 = 1; Table 3A
Description: The inhibitory effects of the various synthesized GHRH antagonists were tested in cell proliferation assays in various human cancer cell lines including stomach cancer (KATOIII, N87), colon cancer (HT-29), urothelial cancer (J82, RT4), pancreatic cancer (PANC-1, CFPAC-1), prostatic cancer (PC3), breast cancer (MX-1, HCC1806), ovarian cancer (SK-OV-3, OVCAR-3) and lung cancer (HCC827, H460).
Cell culture. Human cancer cell lines including pancreatic (PANC-1 and CFPAC-1), lung (HCC827 and H460), stomach (NCI-N87 and KATOIII), urothelial (J82, RT4), prostatic (PC3), breast (MX-1 and HCC 1806), colorectal (HT-29), and ovarian (SK-OV-3 and OVCAR-3) were obtained from the American Type Culture Collection (ATCC) and cultured at 37° C. in a humidified 95% air/5% CO2 atmosphere in the medium recommended by ATCC.
In vitro cell viability. Cell viability was analyzed as follows: cancer cells including pancreatic (PANC-1 and CFPAC-1), lung (HCC827 and H460), stomach (NCI-N87 and KATOIII), urothelial (J82, RT4), prostatic (PC3) and breast (MX-1 and HCC 1806), colorectal (HT-29) and ovarian (SK-OV-3 and OVCAR-3) were grown on 96 well plates to ˜60% confluence, the cells were starved for 24 h in culture medium containing 0.5% FBS. Cells were then treated with GHRH antagonists MIA602 AVR compounds at concentrations of 1, 2.5 or 5 μM, or vehicle (0.1% DMSO) in quintuplicates for 72 hours. The medium was replaced every 48 hours. Cell viability was measured using CellTiter 96 aqueous one solution kit (Promega). Inhibitory effects of tested AVR compounds in comparison to that of MIA602 are presented as inhibitory potency.
Inhibitory effects of selected AVR compounds in comparison to that of MIA602 are presented as inhibitory potency (e.g., percentage of inhibition). […] The cell lines tested including lung cancer HCC827 (FIG. 2A), pancreatic cancer CFPAC-1 (FIG. 2B), stomach cancer N87 (FIG. 2C), colon cancer HT-29 (FIG. 2D), breast cancers MX-1 and HCC1806 (FIGS. 2E, F). […]

In the case of `CCCC[C@H](NC(=O)[C@@H](NC(=O)[C@H](CC(=O)O)NC(=O)[C@H](CCC(N)=O)NC(=O)[C@H](CC(C)C)NC(=O)[C@H](CC(C)C)NC(=O)[C@H](CCCN)NC(=O)[C@H](Cc1c[nH]cn1)NC(=O)[C@H](C)NC(=O)[C@H](CO)NC(=O)[C@H](CC(C)C)NC(=O)[C@H](CCC(N)=O)NC(=O)[C@H](CC)NC(=O)[C@H](CC(C)C)NC(=O)[C@@H](NC(=O)[C@H](CCCN)NC(=O)[C@H](Cc1c[nH]cn1)NC(=O)[C@H](Cc1ccc(OC)cc1)NC(=O)[C@H](CCCCNC(=N)N)NC(=O)[C@H](C)NC(=O)[C@@H](NC(=O)[C@H](Cc1c(F)c(F)c(F)c(F)c1F)NC(=O)[C@@H](NC(=O)[C@H](C)NC(=O)[C@H](CC(=O)O)NC(=O)[C@@H](CCCNC(=N)N)NC(=O)[C@H](Cc1ccc(O)cc1)NC(=O)CCCCCCCCCCCNC(=O)Cc1ccccc1)[C@@H](C)CC)[C@@H](C)O)C(C)C)[C@@H](C)CC)C(=O)N[C@H](CCCNC(=N)N)C(=O)N[C@@H](CCCCNC(=N)N)C(N)=O` [MIA-602, PhAC-Ada, Tyr D-Arg, Asp, Ala, Ile, 5FPhe, Thr, Ala, Har, Tyr(Me), His, Orn, Val, Leu, Abu, Gin, Leu, Ser, Ala, His, Orn, Leu, Leu, Gin, Asp, Ile, Nle, D-Arg, Har NH2, reference compound] ({PhAc-12Ado}-Y[dR]DAI[Phe(F5)]TA[hArg]Y(Me)H[Orn]VL[Abu]QLSAH[Orn]LLQDI[Nle][dR][hArg]-NH2), the “Signaling pathways in gastric cancer cells” value [1] is given as “downregulates p21 activated kinase and STAT3 and NFκB; also recorded: inhibits signaling pathways, including PAK1-STAT3/NF-κB”, the “Lung gene expression, RNA-seq pathway analysis” value [2] is given as “suppression of the adaptive immune response, T cell differentiation and activation and cytokine production” and the “Fibroblast gene expression” value [3] is given as “significant downregulation of genes involved in collagen fibril organization, cell-matrix adhesion and elastic fiber assembly”. The “Relative inhibitory potency, Prostatic PC3” value (PC3 cells) was 1.
